From patent publication US20250235434A1, “RIFABUTIN ANALOGS FOR THE TREATMENT OF DISEASE” (BIOVERSYS AG, priority 2022, published 2025)
In brackets after ≈: the same amount, converted by molar mass.

Tests used:
Assay type in all cases: cell-based
[1] = tested on: S. aureus (UAMS-1625 strain); assay: MIC by broth microdilution against S. aureus; conditions: Staphylococcus aureus, 20 h, read-out: MIC S. aureus
[2] = tested on: A. baumannii (HUMC1 strain); assay: MIC by broth microdilution against A. baumannii; conditions: Acinetobacter baumannii, RPMI medium supplemented with 10% FCS, 35° C. for 20 hours, visual reading
[3] = tested on: M. abscessus (ATCC 19977); assay: MIC by broth microdilution against M. abscessus; conditions: Mycobacteroides abscessus, ATCC19977, 20 h; ATCC 19977; Middlebrook 7H9 broth with ADC supplement; visual reading; read-out: MIC M. abscessus
[4] = tested on: M. tuberculosis H37Rv (ATCC 27294); assay: microbe, parasite or virus in culture; conditions: Mycobacterium tuberculosis, 120 h
[5] = tested on: M. smegmatis (ATCC 700084); assay: MIC against M. smegmatis (resazurin assay); conditions: Mycolicibacterium smegmatis, ATCC700084, Middlebrook 7H9 + ADC, 90% growth inhibition, 20 h
M. xenopi (ATCC 19250) = assay: MIC against M. xenopi (resazurin assay); conditions: Mycobacterium xenopi, ATCC19250, 168 h, Middlebrook 7H9 + ADC, 90% growth inhibition, 7 days
M. kansasii (ATCC 12478) = assay: MIC against M. kansasii (resazurin assay); conditions: Mycobacterium kansasii, ATCC12478, 168 h, Middlebrook 7H9 + ADC, 90% growth inhibition, 7 days
M. avium (ATCC 25291) = assay: MIC against M. avium (resazurin assay); conditions: Mycobacterium avium, ATCC25291, 168 h, Middlebrook 7H9 + ADC, 90% growth inhibition, 7 days

CO[C@H]1/C=C/O[C@@]2(C)Oc3c(C)c(O)c4c(c3C2=O)C2=NC3(CCN(CC(C)C)CC3)NC2=C(NC(=O)/C(C)=C\C=C\[C@H](C)[C@H](O)[C@@H](C)[C@@H](O)[C@@H](C)[C@H](OC(=O)CN2CCC(C(O)c3nccn3C)CC2)[C@@H]1C)C4=O (stereo partly drawn) [Compound 23]
MIC [1]: 0.125 µg/mL (≈ 0.12 µM) | MIC [2]: 0.004 µg/mL (≈ 0.00385 µM) | MIC [3]: 1 µg/mL (≈ 0.961 µM)

COc1cc(CC2CCN(CC(=O)O[C@H]3[C@H](C)[C@H](O)[C@H](C)[C@@H](O)[C@@H](C)/C=C/C=C(/C)C(=O)NC4=C5NC6(CCN(CC(C)C)CC6)N=C5c5c(c(O)c(C)c6c5C(=O)[C@@](C)(O/C=C/[C@H](OC)[C@H]3C)O6)C4=O)CC2)cc(C(F)(F)F)c1 [Compound 22]
MIC [1]: 4 µg/mL (≈ 3.58 µM) | MIC [2]: 0.25 µg/mL (≈ 0.224 µM) | MIC [3]: 4 µg/mL (≈ 3.58 µM)

CO[C@H]1/C=C/O[C@@]2(C)Oc3c(C)c(O)c4c(c3C2=O)C2=NC3(CCN(CC(C)C)CC3)NC2=C(NC(=O)/C(C)=C\C=C\[C@H](C)[C@H](O)[C@@H](C)[C@@H](O)[C@@H](C)[C@H](OC(=O)CN2CCCCC2)[C@@H]1C)C4=O [Compound 4]
MIC [1]: 0.06 µg/mL (≈ 0.0645 µM) | MIC [2]: 0.004 µg/mL (≈ 0.0043 µM) | MIC [3]: 4 µg/mL (≈ 4.3 µM)

CO[C@H]1/C=C/O[C@@]2(C)Oc3c(C)c(O)c4c(c3C2=O)C2=NC3(CCN(CC(C)C)CC3)NC2=C(NC(=O)/C(C)=C\C=C\[C@H](C)[C@H](O)[C@@H](C)[C@@H](O)[C@@H](C)[C@H](OC(=O)CNCCN2CCCCC2)[C@@H]1C)C4=O [Compound 8]
MIC [1]: 0.06 µg/mL (≈ 0.0617 µM) | MIC [2]: ≤ 0.002 µg/mL | MIC [3]: 1 µg/mL (≈ 1.03 µM)

CO[C@H]1/C=C/O[C@@]2(C)Oc3c(C)c(O)c4c(c3C2=O)C2=NC3(CCN(CC(C)C)CC3)NC2=C(NC(=O)/C(C)=C\C=C\[C@H](C)[C@H](O)[C@@H](C)[C@@H](O)[C@@H](C)[C@H](OC(=O)CN2CCC(Cc3ccccc3)CC2)[C@@H]1C)C4=O [Compound 21]
MIC [1]: 4 µg/mL (≈ 3.92 µM) | MIC [2]: 0.125 µg/mL (≈ 0.123 µM) | MIC [3]: 2 µg/mL (≈ 1.96 µM)

CO[C@H]1/C=C/O[C@@]2(C)Oc3c(C)c(O)c4c(c3C2=O)C2=NC3(CCN(CC(C)C)CC3)NC2=C(NC(=O)/C(C)=C\C=C\[C@H](C)[C@H](O)[C@@H](C)[C@@H](O)[C@@H](C)[C@H](OC(=O)CN2CCN(c3ccccc3)CC2)[C@@H]1C)C4=O [Compound 7]
MIC [1]: 0.5 µg/mL (≈ 0.496 µM) | MIC [2]: 0.06 µg/mL (≈ 0.0596 µM) | MIC [3]: 0.5 µg/mL (≈ 0.496 µM)

CO[C@H]1/C=C/O[C@@]2(C)Oc3c(C)c(O)c4c(c3C2=O)C2=NC3(CCN(CC(C)C)CC3)NC2=C(NC(=O)/C(C)=C\C=C\[C@H](C)[C@H](O)[C@@H](C)[C@@H](O)[C@@H](C)[C@H](OC(=O)CN2CCC(N3CCCCC3)CC2)[C@@H]1C)C4=O [Compound 26]
MIC [4]: 0.007 µg/mL (≈ 0.00691 µM) | MIC [5]: 0.04 µg/mL | MIC [1]: 0.06 µg/mL (≈ 0.0592 µM) | MIC (M. xenopi (ATCC 19250)): 0.06 µg/mL | MIC [2]: ≤ 0.002 µg/mL | MIC (M. kansasii (ATCC 12478)): 0.02 µg/mL | MIC [3]: 0.5 µg/mL (≈ 0.493 µM) | MIC (M. avium (ATCC 25291)): 1.15 µg/mL

CO[C@H]1/C=C/O[C@@]2(C)Oc3c(C)c(O)c4c(c3C2=O)C2=NC3(CCN(CC(C)C)CC3)NC2=C(NC(=O)/C(C)=C\C=C\[C@H](C)[C@H](O)[C@@H](C)[C@@H](O)[C@@H](C)[C@H](OC(=O)CNCCN(C)C)[C@@H]1C)C4=O [Compound 13]
MIC [1]: 0.03 µg/mL (≈ 0.0321 µM) | MIC [2]: ≤ 0.002 µg/mL | MIC [3]: 2 µg/mL (≈ 2.14 µM)

CO[C@H]1/C=C/O[C@@]2(C)Oc3c(C)c(O)c4c(c3C2=O)C2=NC3(CCN(CC(C)C)CC3)NC2=C(NC(=O)/C(C)=C\C=C\[C@H](C)[C@H](O)[C@@H](C)[C@@H](O)[C@@H](C)[C@H](OC(=O)CNCC(C)C)[C@@H]1C)C4=O [Compound 17]
MIC [1]: 0.06 µg/mL (≈ 0.0653 µM) | MIC [2]: 0.008 µg/mL (≈ 0.00871 µM) | MIC [3]: 4 µg/mL (≈ 4.36 µM)

CO[C@H]1/C=C/O[C@@]2(C)Oc3c(C)c(O)c4c(c3C2=O)C2=NC3(CCN(CC(C)C)CC3)NC2=C(NC(=O)/C(C)=C\C=C\[C@H](C)[C@H](O)[C@@H](C)[C@@H](O)[C@@H](C)[C@H](OC(=O)CNCCN2CCOCC2)[C@@H]1C)C4=O [Compound 10]
MIC [4]: 0.008 µg/mL (≈ 0.0082 µM) | MIC [5]: 0.1 µg/mL | MIC [1]: 0.03 µg/mL (≈ 0.0308 µM) | MIC (M. xenopi (ATCC 19250)): 0.01 µg/mL | MIC [2]: ≤ 0.002 µg/mL | MIC (M. kansasii (ATCC 12478)): 0.015 µg/mL | MIC [3]: 1 µg/mL (≈ 1.03 µM) | MIC (M. avium (ATCC 25291)): 1 µg/mL

CO[C@H]1/C=C/O[C@@]2(C)Oc3c(C)c(O)c4c(c3C2=O)C2=NC3(CCN(CC(C)C)CC3)NC2=C(NC(=O)/C(C)=C\C=C\[C@H](C)[C@H](O)[C@@H](C)[C@@H](O)[C@@H](C)[C@H](OC(=O)CN2CCC3(CC2)C(=O)NCN3c2ccccc2)[C@@H]1C)C4=O [Compound 20]
MIC [4]: 0.003 µg/mL (≈ 0.00279 µM) | MIC [5]: 0.1 µg/mL | MIC [1]: 0.5 µg/mL (≈ 0.465 µM) | MIC (M. xenopi (ATCC 19250)): 0.03 µg/mL | MIC [2]: 0.03 µg/mL (≈ 0.0279 µM) | MIC (M. kansasii (ATCC 12478)): 0.01 µg/mL | MIC [3]: 0.25 µg/mL (≈ 0.232 µM) | MIC (M. avium (ATCC 25291)): 0.5 µg/mL
